Data taken from patent US6914045B2, “Glycopeptide antibiotics” (Wyeth Holdings Corporation, priority 2001, dated 2005).
Values after ≈ are worked out from the molar mass of the structure shown.

Legend:
Experiment in all cases: in vitro antibacterial evaluation, MIC by broth dilution
Type in all cases: cell-based
[1] = system: Enterococcus sp.; details: broth dilution, 18 hours at 35° C.
In short: (§1)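 Test organisms, which included recent clinical isolates resistant to methicillin, penicillin and/or vancomycin, were inoculated at 5×10^5 CFU/mL into Muller-Hinton II […] containing antibiotic at 64-0.06 μg/mL. Minimum inhibitory concentrations were then read as the lowest level inhibiting growth.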

[2] = system: Streptococcus sp.; details: broth dilution, 18 hours at 35° C.
In short: as §1

[3] = system: Staphylococcus sp.; details: broth dilution, 18 hours at 35° C.
In short: as §1

[4] = system: Escherichia coli; details: 18 hours at 35° C.

MIC Enterococcus avium (GC 4558) [1]: 16 µg/mL (≈ 11 µM)
MIC Enterococcus faecalis (ATCC 29212) [1]: 32 µg/mL (≈ 22 µM)
MIC Enterococcus faecalis (GC 2242) [1]: 32 µg/mL (≈ 22 µM)
MIC Enterococcus faecalis (GC 2691) [1]: 32 µg/mL (≈ 22 µM)
MIC Enterococcus faecalis (GC 3059) [1]: 32 µg/mL (≈ 22 µM)
MIC Enterococcus faecalis (GC 4552) [1]: 32 µg/mL (≈ 22 µM)
MIC Enterococcus faecalis (GC 4553) [1]: 32 µg/mL (≈ 22 µM)
MIC Enterococcus faecalis (GC 4554) [1]: 32 µg/mL (≈ 22 µM)
MIC Enterococcus faecalis (GC 6189) [1]: 32 µg/mL (≈ 22 µM)
MIC Enterococcus faecium (GC 2243) [1]: 32 µg/mL (≈ 22 µM)
MIC Enterococcus faecium (GC 4556) [1]: 32 µg/mL (≈ 22 µM)
MIC Enterococcus faecium (GC 4557) [1]: 16 µg/mL (≈ 11 µM)
MIC Enterococcus faecalis (ATCC 29212) ([1]; strain ATCC 29212): 32 µg/mL (≈ 22 µM)
MIC Enterococcus faecium (GC 2243) ([1]; strain GC 2243): 32 µg/mL (≈ 22 µM)
MIC Enterococcus faecalis (GC 4552) ([1]; strain GC 4552): 32 µg/mL (≈ 22 µM)
MIC Enterococcus faecalis (GC 4553) ([1]; strain GC 4553): 32 µg/mL (≈ 22 µM)
MIC Enterococcus faecalis (GC 4554) ([1]; strain GC 4554): 32 µg/mL (≈ 22 µM)
MIC Enterococcus faecium (GC 4556) ([1]; strain GC 4556): 32 µg/mL (≈ 22 µM)
MIC Enterococcus faecium (GC 4557) ([1]; strain GC 4557): 16 µg/mL (≈ 11 µM)
MIC Enterococcus avium (GC 4558) ([1]; strain GC 4558): 16 µg/mL (≈ 11 µM)
MIC Enterococcus faecalis (GC 6189) ([1]; strain GC 6189): 32 µg/mL (≈ 22 µM)
MIC Enterococcus faecalis (GC 2242) ([1]; inoculum 5×10^5 CFU/mL, strain GC 2242): 32 µg/mL (≈ 22 µM)
MIC Enterococcus faecalis (GC 2691) ([1]; inoculum 5×10^5 CFU/mL, strain GC 2691): 32 µg/mL (≈ 22 µM)
MIC Enterococcus faecalis (GC 3059) ([1]; inoculum 5×10^5 CFU/mL, strain GC 3059): 32 µg/mL (≈ 22 µM)
MIC Streptococcus agalactiae (GC 4564) [2]: 16 µg/mL (≈ 11 µM)
MIC Streptococcus pneumoniae (ATCC 6301) [2]: 16 µg/mL (≈ 11 µM)
MIC Streptococcus pneumoniae (GC 1894) [2]: 1 µg/mL (≈ 0.688 µM)
MIC Streptococcus pneumoniae (GC 4565) [2]: 2 µg/mL (≈ 1.38 µM)
MIC Streptococcus pyogenes (GC 4563) [2]: 8 µg/mL (≈ 5.5 µM)
MIC Streptococcus pneumoniae (ATCC 6301) ([2]; inoculum 5×10^5 CFU/mL, strain ATCC 6301): 16 µg/mL (≈ 11 µM)
MIC Streptococcus pneumoniae (GC 1894) ([2]; inoculum 5×10^5 CFU/mL, strain GC 1894): 1 µg/mL (≈ 0.688 µM)
MIC Streptococcus pyogenes (GC 4563) ([2]; inoculum 5×10^5 CFU/mL, strain GC 4563): 8 µg/mL (≈ 5.5 µM)
MIC Streptococcus agalactiae (GC 4564) ([2]; inoculum 5×10^5 CFU/mL, strain GC 4564): 16 µg/mL (≈ 11 µM)
MIC Streptococcus pneumoniae (GC 4565) ([2]; inoculum 5×10^5 CFU/mL, strain GC 4565): 2 µg/mL (≈ 1.38 µM)
MIC Coagulase Negative Staphylococcus (GC 4547) [3]: 32 µg/mL (≈ 22 µM)
MIC Coagulase Negative Staphylococcus (GC 4548) [3]: 32 µg/mL (≈ 22 µM)
MIC Coagulase Negative Staphylococcus (GC 4549) [3]: 16 µg/mL (≈ 11 µM)
MIC Coagulase Negative Staphylococcus (GC 4551) [3]: 32 µg/mL (≈ 22 µM)
MIC Coagulase Negative Staphylococcus (GC 6257) [3]: 16 µg/mL (≈ 11 µM)
MIC Staphylococcus aureus (ATCC 29213) [3]: 32 µg/mL (≈ 22 µM)
MIC Staphylococcus aureus (GC 1131) [3]: 32 µg/mL (≈ 22 µM)
MIC Staphylococcus aureus (GC 3051) [3]: 32 µg/mL (≈ 22 µM)
MIC Staphylococcus aureus (GC 3053) [3]: 32 µg/mL (≈ 22 µM)
MIC Staphylococcus aureus (GC 4541) [3]: 32 µg/mL (≈ 22 µM)
MIC Staphylococcus aureus (GC 4542) [3]: 32 µg/mL (≈ 22 µM)
MIC Staphylococcus aureus (GC 4544) [3]: 32 µg/mL (≈ 22 µM)
MIC Staphylococcus aureus (GC 4545) [3]: 32 µg/mL (≈ 22 µM)
MIC Staphylococcus aureus-SMITH (GC 4543) [3]: 32 µg/mL (≈ 22 µM)
MIC Staphylococcus aureus (ATCC 29213) ([3]; strain ATCC 29213): 32 µg/mL (≈ 22 µM)
MIC Staphylococcus aureus (GC 1131) ([3]; strain GC 1131): 32 µg/mL (≈ 22 µM)
MIC Staphylococcus aureus (GC 3051) ([3]; strain GC 3051): 32 µg/mL (≈ 22 µM)
MIC Staphylococcus aureus (GC 3053) ([3]; strain GC 3053): 32 µg/mL (≈ 22 µM)
MIC Staphylococcus aureus (GC 4541) ([3]; strain GC 4541): 32 µg/mL (≈ 22 µM)
MIC Staphylococcus aureus (GC 4542) ([3]; strain GC 4542): 32 µg/mL (≈ 22 µM)
MIC Staphylococcus aureus-SMITH (GC 4543) ([3]; strain GC 4543): 32 µg/mL (≈ 22 µM)
MIC Staphylococcus aureus (GC 4544) ([3]; strain GC 4544): 32 µg/mL (≈ 22 µM)
MIC Staphylococcus aureus (GC 4545) ([3]; strain GC 4545): 32 µg/mL (≈ 22 µM)
MIC Coagulase Negative Staphylococcus (GC 4547) ([3]; strain GC 4547): 32 µg/mL (≈ 22 µM)
MIC Coagulase Negative Staphylococcus (GC 4548) ([3]; strain GC 4548): 32 µg/mL (≈ 22 µM)
MIC Coagulase Negative Staphylococcus (GC 4549) ([3]; strain GC 4549): 16 µg/mL (≈ 11 µM)
MIC Coagulase Negative Staphylococcus (GC 4551) ([3]; strain GC 4551): 32 µg/mL (≈ 22 µM)
MIC Coagulase Negative Staphylococcus (GC 6257) ([3]; strain GC 6257): 16 µg/mL (≈ 11 µM)
MIC Escherichia coli (ATCC 25922) [4]: >64 µg/mL
MIC Escherichia coli (GC 4559) [4]: >64 µg/mL
MIC Escherichia coli (GC 4560) [4]: 32 µg/mL (≈ 22 µM)
SMILES: CC(c1ccccc1)C1NC(=O)CNC(=O)C(CO)NC(=O)C(C(O)C2CNC(=N)N2C2OC(CO)C(O)C(O)C2O)NC(=O)C(C(O)C2CNC(=N)N2)NC(=O)C(Cc2ccc(OC3OC(CO)C(OC4OC(CO)C(OCC=Cc5ccc(N(C)C)cc5)C(O)C4O)C(O)C3O)cc2)NC1=O (stereo not shown) [Example 243a]
MIC Staphylococcus haemolyticus (GC 4546) [3]: 32 µg/mL (≈ 22 µM)
MIC Staphylococcus haemolyticus (GC 4546) ([3]; strain GC 4546): 32 µg/mL (≈ 22 µM)
